This note sets out measurements from paper PMC11165489, “Polyketide Trimming Shapes Dihydroxynaphthalene‐Melanin and Anthraquinone Pigments” (Advanced Science, 2024).

What all share (assay type): binding
In one assay the target is T1, Wdyg1p (Exophiala dermatitidis, UniProt Q6BCB5).
T1 construct: gene yg1; homodimer; N-domain residues 1-139, C-domain residues 144-393; active-site Ser256, His378; construct and host only in supplement
Kind of assay: X-ray crystal structure.

Another assay addresses T2, Afyg1p (Aspergillus fumigatus, UniProt Q4WZB3).
T2 construct: gene ayg1; homodimer; active-site Ser257, His380, Asp352; construct and host only in supplement
Kind of assay: X-ray crystal structure. To be noted: reaction product in specificity pocket; 1.7 A.

A further assay deals with T3, PlAntI (Photorhabdus laumondii, UniProt Q7MZT8).
T3 construct: gene plu4186; crystallised enzyme; catalytic Ser245, His355, Asp326; construct and host only in supplement
T3 sequence (Q7MZT8 1-384): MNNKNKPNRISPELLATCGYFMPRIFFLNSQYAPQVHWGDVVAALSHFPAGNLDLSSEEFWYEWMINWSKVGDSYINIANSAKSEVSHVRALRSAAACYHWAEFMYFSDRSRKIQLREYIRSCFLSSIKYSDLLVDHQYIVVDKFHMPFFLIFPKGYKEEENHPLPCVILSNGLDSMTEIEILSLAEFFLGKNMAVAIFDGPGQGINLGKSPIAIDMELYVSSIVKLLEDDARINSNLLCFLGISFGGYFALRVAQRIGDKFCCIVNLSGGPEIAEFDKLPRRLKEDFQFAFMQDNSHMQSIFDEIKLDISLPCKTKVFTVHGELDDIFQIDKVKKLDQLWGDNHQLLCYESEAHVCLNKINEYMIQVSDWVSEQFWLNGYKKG
The experiment in a line: X-ray crystal structure; mass spectrometry. To be noted: covalent; Ser245 converted to dehydroalanine, inhibitor itself eliminated; 1.8 A.

T1 sequence (Q6BCB5 entry or part of it): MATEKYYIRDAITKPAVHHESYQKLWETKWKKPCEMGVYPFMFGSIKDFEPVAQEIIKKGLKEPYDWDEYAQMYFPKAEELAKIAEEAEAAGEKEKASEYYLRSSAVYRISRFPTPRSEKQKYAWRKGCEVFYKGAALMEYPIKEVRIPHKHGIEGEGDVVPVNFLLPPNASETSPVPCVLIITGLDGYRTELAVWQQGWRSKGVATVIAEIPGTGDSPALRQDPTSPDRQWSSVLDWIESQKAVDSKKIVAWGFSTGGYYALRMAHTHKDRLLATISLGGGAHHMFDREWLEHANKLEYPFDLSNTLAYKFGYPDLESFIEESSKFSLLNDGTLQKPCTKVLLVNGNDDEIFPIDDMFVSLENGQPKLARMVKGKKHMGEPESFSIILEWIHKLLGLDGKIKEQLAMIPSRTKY
T2 sequence (Q4WZB3 2-406): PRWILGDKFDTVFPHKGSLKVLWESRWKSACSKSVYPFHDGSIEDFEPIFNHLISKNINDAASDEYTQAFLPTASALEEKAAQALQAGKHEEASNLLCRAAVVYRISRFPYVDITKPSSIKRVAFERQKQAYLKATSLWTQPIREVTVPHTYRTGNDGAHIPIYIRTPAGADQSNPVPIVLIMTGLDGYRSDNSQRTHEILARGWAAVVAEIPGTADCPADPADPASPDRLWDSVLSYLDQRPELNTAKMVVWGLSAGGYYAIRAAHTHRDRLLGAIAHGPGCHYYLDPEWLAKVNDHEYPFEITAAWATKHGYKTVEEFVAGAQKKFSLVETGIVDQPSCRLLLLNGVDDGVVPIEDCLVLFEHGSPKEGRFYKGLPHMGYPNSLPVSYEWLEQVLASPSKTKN

As to `Oc1cc(O)c2c(O)cc(O)cc2c1` [THN, 1,3,6,8‐tetrahydroxynaphthalene], the X-ray crystal structure result on Wdyg1p (reaction product in specificity pocket, 1.95 A) was “Wdyg1p crystal structure in complex with its product, THN (Wdyg1p:THN, PDB ID: 8QD9”; at Afyg1p, “the structure of Afyg1p in complex with its reaction product THN was analyzed”.
On to `O=S(=O)(F)c1ccccc1` [PSF, phenyl‐SF], for which the “X-ray crystal structure; mass spectrometry” value at PlAntI is “treatment of PlAntI with PMSF (*) or PSF (^#) appears to also introduce a DHA”. Moreover, on Wdyg1p (covalent, Ser256 converted to dehydroalanine, inhibitor itself eliminated, 1.85 A), the X-ray crystal structure entry is “treatment of Wdyg1p with PMSF (*) or PSF (^#) leads to the β‐elimination mediated conversion”.
